The assay has as its target Sphingosine kinase 1 (SK1) (Homo sapiens, UniProt Q9NYA1). The assay can be described thus: […]S1P formation assay, single concentration […]. In kind it is biochemical. The note with it: read-out: % inhibition at 50 μM.

Our source for the inhibition values is PMC2947314 (Cellular Signalling, 2010).

Sequence of Sphingosine kinase 1 (SK1) (Q9NYA1 whole entry): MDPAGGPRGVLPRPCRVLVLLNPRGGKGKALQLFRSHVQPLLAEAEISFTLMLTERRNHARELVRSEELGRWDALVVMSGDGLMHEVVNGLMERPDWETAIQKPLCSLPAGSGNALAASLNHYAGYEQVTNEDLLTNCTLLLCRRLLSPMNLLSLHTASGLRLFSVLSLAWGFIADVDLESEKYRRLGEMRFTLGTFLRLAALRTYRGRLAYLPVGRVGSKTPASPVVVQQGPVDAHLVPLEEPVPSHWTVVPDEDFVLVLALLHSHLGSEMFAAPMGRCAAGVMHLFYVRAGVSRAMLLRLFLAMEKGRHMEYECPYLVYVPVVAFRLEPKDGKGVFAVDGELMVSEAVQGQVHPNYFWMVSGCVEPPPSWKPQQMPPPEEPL

For `CCCCCCCCc1ccc(CCC(N)(CO)CO)cc1` [FTY720], the inhibition at 50 µM was approximately 40%.

Usually inhibition stands for how much of the control response was suppressed.
